Source: patent US20240415801A1, “Methods and Compositions for Treating Fibroids” (Lundquist Institute for Biomedical Innovation at …, priority 2023, published 2024)

Assays:
[1] = Blood chemistry panel (Example 1); assay type: in vivo, SCID/Beige mice; details: 20 mg/kg daily i.p.
Procedure: After 8 weeks of treatment with either the vehicle or Bay, plasma chemistry was analyzed. Specifically, 100 μL of plasma was transferred into the Comprehensive Diagnostic Profile Rotor (#500-1038, Abaxis, Union City, CA, USA). Subsequently, the levels of glucose, creatinine, BUN, phosphorus, sodium, albumin, alkaline phosphatase, serum glutamic pyruvic transaminase (SGPT; ALT), total protein, globulin, total bilirubin, and amylase were assessed using the VetScan VS2 chemistry analyzer (Abaxis, Union City, CA, USA) as previously described.

[2] = tested on: fibroid xenografts; experiment: Quantitative RT-PCR of fibroid xenografts (Example 1); assay type: in vivo, SCID/Beige mice; details: 20 mg/kg daily, 8 weeks
Procedure: Quantitative RT-PCR was performed as previously described. Selected gene expression levels were assessed utilizing the Invitrogen StepOne System, with normalization against 18S. Triplicate reactions were conducted, and relative mRNA expression was calculated using the comparative cycle threshold method (2−ΔΔCt), with results presented as fold change relative to the control group. The primer sequences used are shown in the following Sequence Table: […]

[3] = tested on: fibroid xenografts; experiment: Immunoblotting of fibroid xenografts (Example 1); assay type: in vivo, SCID/Beige mice; details: 20 mg/kg daily, 8 weeks
From the text: Protein extracted from the xenografts underwent immunoblotting as previously described. Primary antibodies targeting COL3A1, FN1, SPARC, TDO2, and Cleaved Caspase 3 were purchased from Proteintech Group, Inc. (Chicago, IL, USA). Band densities of specific proteins were quantified using the Image J program (http://imagej.nih.gov/ij/), and normalized to a Ponceau S staining band on the membrane. Results were expressed as means±SEM, and are presented as ratios relative to the control group, designated as 1.

[4] = tested on: primary fibroid smooth muscle cells; details: refs [10, 93]; cited from earlier work

Cc1ccc(S(=O)(=O)/C=C/C#N)cc1 [Bay 11-7082]
changes in blood chemistry including liver, kidney and pancreatic function ([1]; 8 weeks): no changes | Albumin (mean ± SEM) ([1]; plasma after 8 weeks): 3.5 ± 0.14 g/dL | Alkaline phosphatase (mean ± SEM) ([1]; plasma after 8 weeks): 91.9 ± 20.05 U/l | Amylase (mean ± SEM) ([1]; plasma after 8 weeks): 643.0 ± 36.82 U/l | BUN (mean ± SEM) ([1]; plasma after 8 weeks): 27.1 ± 5.75 mg/dL | Creatinine (mean ± SEM) ([1]; plasma after 8 weeks): 0.4 ± 0.03 mg/dL | Globulin (mean ± SEM) ([1]; plasma after 8 weeks): 1.1 ± 0.24 g/dL | Glucose (mean ± SEM) ([1]; plasma after 8 weeks): 261.0 ± 14.63 mg/dL | Phosphorus (mean ± SEM) ([1]; plasma after 8 weeks): 10.1 ± 0.53 mg/dL | SGPT (ALT) (mean ± SEM) ([1]; plasma after 8 weeks): 54.5 ± 8.71 U/l | Sodium (mean ± SEM) ([1]; plasma after 8 weeks): 155.3 ± 1.35 mEq/l | Total bilirubin (mean ± SEM) ([1]; plasma after 8 weeks): 0.3 ± 0.04 mg/dL | Total protein (mean ± SEM) ([1]; plasma after 8 weeks): 4.6 ± 0.16 g/dL | expression of miR-29c and miR-200c [2]: significant increase | mRNA expression of SPARC, TDO2, MYD88, TLR6, TLR3, IL6, TNFα, TNFRSF11A, IL1β, COL3A1, FN1, LOX, TGFB3, CCND1, E2F1, CKS2, PRL, ESR1, PGR, VEGFC, PDGFA, HTR1B ([2]; n=10): significant decrease | protein abundance of COL3A1, FN1, SPARC, TDO2 (Western blot) [3]: inhibited | expression of miR-29c and miR-200c [4]: induced
